Calls of active or inactive are those of the source. No cut-off for these calls is given here.
What was measured:
[1] = biological target: Melatonin receptor type 1A (Homo sapiens, UniProt P48039); test: Displacement of 2-[125I]iodomelatonin from human cloned MT1 receptor expressed in […] NIH3T3 cells; format: cell-based
[2] = biological target: T1, Melatonin receptor type 1B (Homo sapiens, UniProt P49286); test: Displacement of 2-[125I]iodomelatonin from human cloned MT2 receptor expressed in […] NIH3T3 cells; format: cell-based
T1 sequence (P49286 whole entry): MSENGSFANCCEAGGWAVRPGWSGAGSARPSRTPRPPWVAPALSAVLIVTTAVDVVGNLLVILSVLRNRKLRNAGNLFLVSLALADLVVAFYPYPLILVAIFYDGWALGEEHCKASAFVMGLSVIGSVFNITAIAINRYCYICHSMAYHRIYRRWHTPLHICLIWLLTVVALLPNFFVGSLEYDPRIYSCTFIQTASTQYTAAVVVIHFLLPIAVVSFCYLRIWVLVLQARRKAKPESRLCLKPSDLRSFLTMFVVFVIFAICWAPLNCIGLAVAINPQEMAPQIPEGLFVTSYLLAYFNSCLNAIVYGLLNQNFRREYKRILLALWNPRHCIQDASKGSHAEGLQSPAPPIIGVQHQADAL

Rattus norvegicus [3] = test: Sleep promoting activity in rat assessed as decrease in latency at 40 mg/kg, sc; format: functional, organism-based; parameters: dose 40 mg/kg
Rattus norvegicus [4] = test: Sleep promoting activity in rat assessed as increase in duration of slow wave sleep at 40 mg/kg, sc; format: functional, organism-based; parameters: dose 40 mg/kg
Rattus norvegicus [5] = test: Sleep promoting activity in rat assessed as increase of paradoxical sleep latency at 40 mg/kg, sc; format: functional, organism-based; parameters: dose 40 mg/kg
Rattus norvegicus [6] = species: Rattus norvegicus; test: Anxiolytic activity in Sprague-Dawley rat by elevated plus maze test; format: functional, organism-based

Sequence of Melatonin receptor type 1A (P48039 whole entry): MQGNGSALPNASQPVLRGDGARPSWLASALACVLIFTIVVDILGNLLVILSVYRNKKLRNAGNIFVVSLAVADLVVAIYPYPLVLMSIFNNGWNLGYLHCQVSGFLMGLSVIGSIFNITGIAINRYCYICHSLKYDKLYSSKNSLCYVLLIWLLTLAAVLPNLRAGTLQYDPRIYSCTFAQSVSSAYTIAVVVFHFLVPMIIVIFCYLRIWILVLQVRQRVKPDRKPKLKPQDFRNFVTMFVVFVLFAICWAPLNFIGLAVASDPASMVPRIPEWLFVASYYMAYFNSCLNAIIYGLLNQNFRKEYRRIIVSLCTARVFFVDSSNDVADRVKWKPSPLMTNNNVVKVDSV

| Ki [1] [nM] | Ki [2] [nM] | Compound | other results |
| --- | --- | --- | --- |
| 324 | – | COc1cccc(N(CCNC(=O)C2CCC2)c2ccccc2)c1 | – |
| 7.24 | 12.6 | COc1cccc(OCCNC(C)=O)c1 | – |
| – | – | COc1cccc(N(CCNC(C)=O)c2ccccc2)c1 | Activity (Rattus norvegicus [3]): Active; Activity (Rattus norvegicus [4]): Active; Activity (Rattus norvegicus [5]): Active; Activity (Rattus norvegicus [6]): Active |
| – | 7.41 | COc1cccc(NCCNC(C)=O)c1 | – |
